Where only a bound is given, the exact number is not on record here.

Experiment [1] concerns the target T1, human metabotropic glutamic acid receptor 1a (mGluR1a) (Homo sapiens, UniProt Q13255).
T1 construct: expressed in transfected cells
Kind of experiment: mGluR1-inhibiting action: calcium concentration in CHO cells expressing mGluR1a (FLIPR). It is filed as cell-based. The note with it: suppression of rise in calcium raised by 10 μM glutamic acid, test compound added 5 minutes before agonist. On the procedure: cDNA of human metabotropic glutamic acid receptor 1a (mGluR1a) was transfected to CHO cells using Lipofectamine (manufactured by Gibco BRL) to give a strain which stably expresses mGluR1a. The CHO cells in which mGluR1a was expressed were incubated in a DMEM medium containing 10% of dialyzed fetal bovine serum, 1% of proline, 100 units/ml of penicillin, 0.1 mg/ml of streptomycin sulfate and 2 mM of glutamine.
On the day before the measurement, 4 μM Fluo-3 was incubated in a CO2 incubator for 1 hour to the CHO cells where mGluR1a was expressed being plated with 50,000 cells per well of a 96-well black plate (View Plate manufactured by Packard). After that, the cells were washed for four times with an HBSS solution containing 20 mM of HEPES and 2.5 mM of Probenecid and then calcium concentration in the cells was measured using a Fluorescence Imaging Plate Reader (FLIPR, manufactured by Molecular Device). Incidentally, the test compound and glutamic acid were prepared using an HBSS solution containing 20 mM HEPES and 2.5 mM Probenecid. The test compound was added before 5 minutes of the stimulation with an agonist and, with regard to the agonist, 10 μM glutamic acid was used.

The test system of the next experiment is Male ICR (CD-1) mice. Kind of experiment: Suppressive action on autonomic momentum (behavior quantity) in mice increased by methamphetamine. It is filed as in vivo. Particulars: compound 10 mg/kg intraperitoneally 30 minutes before methamphetamine 2 mg/kg subcutaneous, behavior quantity during 60 minutes. As for the experimental part:
Suppressive Action of the Compound to Autonomic Momentum in Mice which Increases by Methamphetamine
Male ICR (CD-1) mice (20 to 40 g) were used and behavior quantity was measured using a behavior quantity measuring device (manufactured by Neuroscience) where movement of animals is perceived by an infrared sensor. A compound or an appropriate solvent was administered to a mouse and, after 30 minutes, a physiological saline solution or methamphetamine was administered. Behavior quantities immediately after that and until 60 minutes thereafter were measured. Difference between the behavior quantity of the methamphetamine-administered group and that of the solvent-administered group during the measuring period was defined as 100% and evaluation was conducted by expressing the inhibitory % in behavior quantity of the test-compound-administered group.

A further experiment deals with rats. Briefly: Suppressive action on pre-pulse inhibition (PPI) decreased by methamphetamine, startle reaction of rats. It is filed as in vivo, rat. Particulars: compound orally 1 to 10 mg/kg 30 minutes before methamphetamine 3 mg/kg, significant suppressive action on decreased PPI. On the procedure: Suppressive Action of the Compound to Pre-Pulse Inhibition which Decreases by Methamphetamine)
Investigation was also carried out in a test system of a pre-pulse inhibition where action of antipsychotic agents is able to be specifically detected. A startle reaction being stimulated by combining sonic stimulations of […] and 72 dB (pre-pulse) prior to pulse stimulation and startle reaction to sonic stimulation of 120 dB (pulse stimulation) in the presence of a back sound of 60 dB was measured using a startle reaction measuring device which perceives the body movement of rats (manufactured by San Diego Instrument). The compound of the present invention or an appropriate solvent was administered to a rat and, after 30 minutes, a physiological saline solution of 3 mg/kg of methamphetamine was administered whereupon measurement of a startle reaction was carried out. The startle reactions upon the pulse stimulation and in the presence of pre-pulse were defined as A and B, respectively and values of pre-pulse inhibition (hereinafter, referred to as PPI) were calculated from the following formula.
Method for calculation of PPI: PPI(%)=100×(A−B)/A
When a pre-treatment with methamphetamine was conducted, the startle reaction attenuated to an extent of only about 20% whereby a reduction in pre-pulse inhibition was noted. In the present model, lowering of pre-pulse inhibition by methamphetamine tends to be recovered when a compound having an mGluR1 antagonistic action was orally administered (1 to 10 mg/kg) 30 minutes before the administration of methamphetamine.

T1 sequence (Q13255 19-1194): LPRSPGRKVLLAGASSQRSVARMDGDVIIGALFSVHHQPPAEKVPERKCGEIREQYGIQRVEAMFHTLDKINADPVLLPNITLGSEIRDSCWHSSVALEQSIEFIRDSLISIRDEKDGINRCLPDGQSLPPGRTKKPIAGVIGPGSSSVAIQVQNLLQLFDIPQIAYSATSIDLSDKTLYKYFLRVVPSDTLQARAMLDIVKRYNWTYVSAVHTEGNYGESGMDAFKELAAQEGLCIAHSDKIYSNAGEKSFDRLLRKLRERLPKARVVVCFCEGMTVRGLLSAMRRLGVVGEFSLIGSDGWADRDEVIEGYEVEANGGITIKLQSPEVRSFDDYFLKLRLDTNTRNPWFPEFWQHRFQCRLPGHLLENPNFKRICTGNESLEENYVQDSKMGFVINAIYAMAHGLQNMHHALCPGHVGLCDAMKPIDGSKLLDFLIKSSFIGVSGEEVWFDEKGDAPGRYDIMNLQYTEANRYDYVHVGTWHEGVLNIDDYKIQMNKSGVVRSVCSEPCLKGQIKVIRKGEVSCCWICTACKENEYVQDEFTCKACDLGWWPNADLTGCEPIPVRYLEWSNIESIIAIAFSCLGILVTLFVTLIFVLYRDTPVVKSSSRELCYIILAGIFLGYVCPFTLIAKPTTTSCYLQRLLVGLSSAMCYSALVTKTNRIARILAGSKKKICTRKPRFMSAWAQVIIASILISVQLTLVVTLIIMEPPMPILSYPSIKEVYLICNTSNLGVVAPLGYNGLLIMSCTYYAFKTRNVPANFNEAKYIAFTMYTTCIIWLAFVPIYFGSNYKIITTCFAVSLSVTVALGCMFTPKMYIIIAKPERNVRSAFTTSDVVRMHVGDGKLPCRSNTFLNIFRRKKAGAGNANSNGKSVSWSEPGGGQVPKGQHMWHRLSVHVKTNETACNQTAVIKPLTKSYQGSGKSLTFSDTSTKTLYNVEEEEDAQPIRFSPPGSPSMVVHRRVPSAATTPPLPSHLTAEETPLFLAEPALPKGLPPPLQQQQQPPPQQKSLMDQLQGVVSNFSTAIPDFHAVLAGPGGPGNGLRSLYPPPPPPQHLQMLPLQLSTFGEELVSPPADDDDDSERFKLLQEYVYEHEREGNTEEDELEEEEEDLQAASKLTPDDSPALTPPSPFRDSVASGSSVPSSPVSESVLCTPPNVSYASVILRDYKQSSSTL

In the case of `Cc1c(C2=CCN(C(=O)OC(C)C)CC2)nnn1-c1cccnc1Cl` [Example 42, Isopropyl 4-[1-(2-chloropyridin-3-yl)-5-methyl-1H-[1,2,3]-triazol-4-yl]-1,2,3,6-tetrahydropyridine-1-carboxylate], the half-inhibitory concentration (IC50) in experiment [1] was 6.7 nM. Further, the “Motility Quantity (Suppressive %)” value in the experiment with Male ICR (CD-1) mice is recorded as greater than 80%. Also, in the experiment on rats, the “Inhibition Effect to PPI Disorder” value is on record as “yes”.

In the case of `Cc1c(C2=CCN(C(=O)OC(C)C)CC2)nnn1-c1ccc(F)nc1` [Example 43, Isopropyl 4-[1-(2-fluoropyridin-5-yl)-5-methyl-1H-[1,2,3]triazol-4-yl]-1,2,3,6-tetrahydropyridine-1-carboxylate], the IC50 in experiment [1] came out at 6.8 nM. The “Motility Quantity (Suppressive %)” value in the experiment with Male ICR (CD-1) mice was greater than 80%. Further, the “Inhibition Effect to PPI Disorder” value in the experiment with rats is “yes”.

Regarding `Cc1c(C2=CCN(C(=O)N(C)C(C)C)CC2)nnn1-c1cccnc1F` [Example 82, 4-[1-(2-Fluoropyridin-3-yl)-5-methyl-1H-[1,2,3]-triazol-4-yl]-1,2,3,6-tetrahydropyridine-1-carboxylic acid isopropylmethylamide], the “Inhibition Effect to PPI Disorder” value in the experiment on rats is listed as “yes”.

Take `Cc1c(C2=CCN(C(=O)N(C)C(C)C)CC2)nnn1-c1cccnc1Cl` [Example 84]: in the experiment on Male ICR (CD-1) mice, the “Motility Quantity (Suppressive %)” value is greater than 80%.

Source of the values: patent publication US7858800B2, “Biaryl derivatives” (Banyu Pharmaceutical Co., Ltd., priority 2004, dated 2010).
